What all share (assay type): biochemical
One experiment concerns the target hFAAH (Homo sapiens (Human), UniProt O00519). As to the kind of experiment: Fluorescent assay for hFAAH. As to conditions: MBP ΔTM hFAAH, procedure as for rFAAH; read-out: hFAAH Inhibition IC50. How it is done:
(§1) Certain compounds were tested for their ABHD6 and dual ABHD6/MGL inhibitory activity, which is expressed as % of inhibition or IC50 values in Table 1. The percentage of inhibition describes the percentage by which the inhibitor reduces the velocity/rate of 2-AG hydrolysis by ABHD6, and MGL or AEA hydrolysis by FAAH. The IC50 is the concentration of the inhibitor, which results in 50% inhibition of the velocity/rate of 2-AG hydrolysis by ABHD6 or MGL. The IC50 is the concentration of the inhibitor, which results in 50% inhibition of the velocity/rate of AEA hydrolysis by FAAH. The lower the IC50 values, the higher its inhibitory activity. A detailed description of the methods used to test inhibitory activity of compounds is given below.
Example 80. Preparation of Human FAAH in Fusion with N-Terminal Maltose Binding Tag (MBP ΔTM hFAAH)
Human FAAH without putative transmembrane domain following maltose binding protein was expressed in E. coli cells using pMALcE4 vector Alapafuja et al J. Med. Chem. (2012) 55: 10074-89.
(§2) The fluorescence reading at the 3 hour time point (linear enzyme kinetics) was used to calculate percent inhibition based on control assays without inhibitor present. All FAAH assays were performed in triplicate for each inhibitor concentration, and IC50 values determined using Prizm software (GraphPad Software, Inc.).
Example 82. Fluorescent Assay Protocol for hFAAH
Procedure was followed as described for rFAAH.

The next experiment concerns the target hMGL (Homo sapiens (Human), UniProt Q99685). As to the kind of experiment: Fluorescent assay for hMGL (AHMMCE substrate hydrolysis). Particulars: E. coli lysate containing hMGL, read-out: hMGL Inhibition IC50. As for the experimental part:
(§3) Certain compounds were tested for their ABHD6 and dual ABHD6/MGL inhibitory activity, which is expressed as % of inhibition or IC50 values in Table 1. The percentage of inhibition describes the percentage by which the inhibitor reduces the velocity/rate of 2-AG hydrolysis by ABHD6, and MGL or AEA hydrolysis by FAAH. […] The lower the IC50 values, the higher its inhibitory activity. A detailed description of the methods used to test inhibitory activity of compounds is given below.
Preparation of Human MAGL (hMAGL)
Fluorescent Assay Protocol for hMGL
This medium throughput assay involved a 96-well plate format in which hMGL activity was monitored by the hydrolysis of the substrate […] (AHMMCE) to form the fluorescent product, coumarin. […] Upon the addition of AHMMCE, the reaction was incubated at 25° C. for 120 min; fluorescence readings were taken every 15 min at 360 nm/460 nm (λexcitation/λemission) using a Synergy HT Plate Reader (Bio-Tek, Winooski, Vt.). […] External standards were used to convert relative fluorescence units to the amount of 4-methylcoumarin formed. All MGL assays were performed in triplicate for each inhibitor concentration, and IC50 values were calculated using Prizm software (GraphPad Software, Inc., San Diego, Calif.).

Another experiment deals with Rat ΔTM FAAH (Rattus norvegicus (Rat), UniProt P97612). In words: Fluorescent assay for rat ΔTM FAAH (AAMCA substrate). As to conditions: ΔTM rFAAH, AAMCA 20 μM; read-out: rFAAH Inhibition IC50. As for the experimental part: as §1
Chain of Rat ΔTM FAAH (P97612 30-579): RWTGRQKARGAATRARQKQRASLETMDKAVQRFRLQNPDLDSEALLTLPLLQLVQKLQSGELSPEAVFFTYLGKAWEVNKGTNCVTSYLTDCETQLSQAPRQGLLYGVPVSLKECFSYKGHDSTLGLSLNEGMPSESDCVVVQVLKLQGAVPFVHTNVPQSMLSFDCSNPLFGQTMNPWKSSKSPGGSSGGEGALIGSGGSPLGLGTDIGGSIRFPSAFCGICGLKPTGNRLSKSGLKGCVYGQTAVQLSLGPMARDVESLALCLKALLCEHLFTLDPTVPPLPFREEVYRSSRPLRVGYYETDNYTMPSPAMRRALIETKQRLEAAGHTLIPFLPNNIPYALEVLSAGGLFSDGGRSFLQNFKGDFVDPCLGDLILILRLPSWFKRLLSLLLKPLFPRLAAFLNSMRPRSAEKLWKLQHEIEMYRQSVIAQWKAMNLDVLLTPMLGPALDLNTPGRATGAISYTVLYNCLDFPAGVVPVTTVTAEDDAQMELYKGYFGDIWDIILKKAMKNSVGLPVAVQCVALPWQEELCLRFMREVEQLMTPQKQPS
Example 79. Preparation of Transmembrane Domain-Deleted Rat FAAH (ΔTM rFAAH)
Rat ΔTM FAAH was expressed in E. coli cells and purified using the procedure disclosed by Patricelli et al. Biochemistry (1998) 37: 15177-15187.
Example 81. Fluorescent Assay Protocol for Rat ΔTM FAAH
as §2

The target in a further experiment is hABHD6 (Homo sapiens (Human), UniProt Q9BV23). In words: Fluorescent assay for hABHD6 (AHMMCE substrate hydrolysis). Particulars: membrane fraction containing full-length hABHD6, 20 μM AHMMCE; read-out: ABHD6 Inhibition IC50. How it is done: as §3
Chain of hABHD6 (Q9BV23 whole entry): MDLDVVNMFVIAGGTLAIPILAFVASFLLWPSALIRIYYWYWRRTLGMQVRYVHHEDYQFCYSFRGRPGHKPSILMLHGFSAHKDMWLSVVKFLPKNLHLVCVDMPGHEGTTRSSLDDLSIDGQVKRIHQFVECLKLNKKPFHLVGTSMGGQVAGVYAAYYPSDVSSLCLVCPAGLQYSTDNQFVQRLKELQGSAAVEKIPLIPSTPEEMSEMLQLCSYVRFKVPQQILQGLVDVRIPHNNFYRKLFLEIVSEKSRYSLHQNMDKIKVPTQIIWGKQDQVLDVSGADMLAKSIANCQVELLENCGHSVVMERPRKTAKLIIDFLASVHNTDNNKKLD
Fluorescent Assays Protocol for hABHD6
Initial Fluorescent Inhibition Assay (3-Point)—
In each well of a 96-well plate 8 μL of membrane fraction containing full-length hABHD6 (1 μg total protein) was mixed with 168 μL of assay buffer (50 mM Tris-HCl, pH 7.6), and 20 μL of diluted compound (diluted in a dilution buffer consisting of 50% DMSO/50% assay buffer v/v). Each plate was incubated at RT for 15 minutes before adding 4 μL of 1 mM AHMMCE substrate (final concentration of 20 μM AHMMCE and final volume of 200 μL). The reaction was allowed to proceed for 1 hr at RT before the fluorescence was read at λex 360 nm and λem 460 nm and the inhibition calculated. Each experiment can test 8 compounds at three concentrations (usually 10 μM, 1 μM, and 100 nM).
IC50 Determination Assay (8-Point)—
A more detailed assay with an extended range tests compounds over 8 concentrations depending on the pre-determined approximate IC50 value from the initial screen. […] The assay was conducted in 96 well plate with each well containing the same reaction mixture detailed above in the 3-point screen. The relative fluorescence is quantified into coumarin produced by using a standard curve of HMMC in triplicate on each plate. Results are normalized to the negative control wells and the IC50 is determined using a non-linear regression curve fit in Prism, version 5 (GraphPad, San Diego, Calif.).

Chain of hMGL (Q99685 whole entry): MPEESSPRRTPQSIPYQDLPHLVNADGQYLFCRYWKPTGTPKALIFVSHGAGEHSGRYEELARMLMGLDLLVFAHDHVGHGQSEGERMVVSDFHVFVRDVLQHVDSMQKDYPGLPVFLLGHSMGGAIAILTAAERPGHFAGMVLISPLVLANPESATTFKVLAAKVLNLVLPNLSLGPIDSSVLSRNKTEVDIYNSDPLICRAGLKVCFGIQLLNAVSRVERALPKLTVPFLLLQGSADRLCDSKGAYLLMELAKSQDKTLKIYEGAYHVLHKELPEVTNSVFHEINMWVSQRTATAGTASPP
Chain of hFAAH (O00519 30-579): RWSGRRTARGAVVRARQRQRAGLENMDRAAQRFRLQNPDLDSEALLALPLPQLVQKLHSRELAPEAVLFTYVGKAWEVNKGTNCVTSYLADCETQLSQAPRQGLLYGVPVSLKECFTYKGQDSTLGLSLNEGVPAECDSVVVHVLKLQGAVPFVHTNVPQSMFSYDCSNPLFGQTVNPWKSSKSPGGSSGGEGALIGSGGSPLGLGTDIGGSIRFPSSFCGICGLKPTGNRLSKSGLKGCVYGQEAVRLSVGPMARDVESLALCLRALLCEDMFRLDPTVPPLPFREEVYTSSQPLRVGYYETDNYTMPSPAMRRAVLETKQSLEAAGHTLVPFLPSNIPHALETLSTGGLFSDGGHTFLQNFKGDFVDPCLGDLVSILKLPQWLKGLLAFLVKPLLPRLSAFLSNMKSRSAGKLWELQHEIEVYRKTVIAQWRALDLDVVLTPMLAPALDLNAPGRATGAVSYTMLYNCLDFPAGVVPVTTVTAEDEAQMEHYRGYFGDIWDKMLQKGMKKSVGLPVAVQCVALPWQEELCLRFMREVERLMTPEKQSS

As to `CC1c2ccccc2CCN1C(=O)OC(C(F)(F)F)C(F)(F)F` (racemic) [Example 6, 1,1,1,3,3,3-Hexafluoropropan-2-yl 1-methyl-3,4-dihydroisoquinoline-2(1H)-carboxylate], the IC50 at hFAAH, at hMGL, at Rat ΔTM FAAH and on hABHD6 was above 1000 nM throughout.
With `CCC1c2ccccc2CCN1C(=O)OC(C(F)(F)F)C(F)(F)F` (racemic) [Example 7, 1,1,1,3,3,3-Hexafluoropropan-2-yl 1-ethyl-3,4-dihydroisoquinoline-2(1H)-carboxylate], the IC50 at hFAAH, on hMGL, at Rat ΔTM FAAH and at hABHD6 was above 1000 nM each time.
Consider `O=C(OC(C(F)(F)F)C(F)(F)F)N1CCc2ccccc2C1` [Example 1, 1,1,1,3,3,3-Hexafluoropropan-2-yl 3,4-dihydroisoquinoline-2(1H)-carboxylate], for which the IC50 on hFAAH is above 1000 nM; on hMGL, above 1000 nM; on Rat ΔTM FAAH, above 1000 nM; at hABHD6, 10 to 100 nM.
In the case of `O=C(OC(C(F)(F)F)C(F)(F)F)N1CCc2ccccc2[C@H]1c1ccccc1` [Example 2, 1,1,1,3,3,3-Hexafluoropropan-2-yl(R)-1-phenyl-3,4-dihydroisoquinoline-2(1H)-carboxylate], the IC50 on hFAAH, at hMGL, at Rat ΔTM FAAH and at hABHD6 was above 1000 nM each time.
In the case of `O=C(OC(C(F)(F)F)C(F)(F)F)N1CCc2ccccc2[C@@H]1c1ccccc1` [Example 3, 1,1,1,3,3,3-Hexafluoropropan-2-yl (S)-1-phenyl-3,4-dihydroisoquinoline-2(1H)-carboxylate], the IC50 at hFAAH, on hMGL, at Rat ΔTM FAAH and on hABHD6 was above 1000 nM throughout.
`O=C(OC(C(F)(F)F)C(F)(F)F)N1CCc2cccc(Br)c2C1` [Example 4, 1,1,1,3,3,3-Hexafluoropropan-2-yl 8-bromo-3,4-dihydroisoquinoline-2(1H)-carboxylate]: the IC50 at hFAAH was above 1000 nM; on hMGL, above 1000 nM; at Rat ΔTM FAAH, above 1000 nM; on hABHD6 it was 10 to 100 nM.
Turning to `O=C(OC(C(F)(F)F)C(F)(F)F)N1Cc2ccc(Br)cc2C1` [Example 8, 1,1,1,3,3,3-Hexafluoropropan-2-yl 5-bromoisoindoline-2-carboxylate], the IC50 on hFAAH is above 1000 nM; on hMGL, above 1000 nM; at Rat ΔTM FAAH, above 1000 nM; on hABHD6 it was 10 to 100 nM.
Consider `COc1ccc2c(c1)CN(C(=O)OC(C(F)(F)F)C(F)(F)F)C2` [Example 9, 1,1,1,3,3,3-Hexafluoropropan-2-yl 5-methoxyisoindoline-2-carboxylate], for which the IC50 at hFAAH is above 1000 nM; on hMGL, above 1000 nM; on Rat ΔTM FAAH it was above 1000 nM; at hABHD6, 10 to 100 nM.
With `O=C(OC(C(F)(F)F)C(F)(F)F)N1CCc2cc(Br)ccc21` [Example 10, 1,1,1,3,3,3-Hexafluoropropan-2-yl 5-bromoindoline-1-carboxylate], the 50% inhibitory concentration (IC50) is above 1000 nM at hFAAH, above 1000 nM on hMGL, above 1000 nM on Rat ΔTM FAAH and 100 to 1000 nM on hABHD6.
As to `O=C(OC(C(F)(F)F)C(F)(F)F)N1Cc2cc(Br)cnc2C1` [Example 11, 1,1,1,3,3,3-Hexafluoropropan-2-yl 3-bromo-5,7-dihydro-6H-pyrrolo[3,4-b]pyridine-6-carboxylate], the half-inhibitory concentration (IC50) was above 1000 nM on hFAAH, above 1000 nM at hMGL, above 1000 nM on Rat ΔTM FAAH and 100 to 1000 nM on hABHD6.
In the case of `O=C(OC(C(F)(F)F)C(F)(F)F)N1Cc2cccc(Br)c2C1` [Example 12, 1,1,1,3,3,3-Hexafluoropropan-2-yl 4-bromoisoindoline-2-carboxylate], the half-maximal inhibitory concentration (IC50) on hFAAH was above 1000 nM; at hMGL, above 1000 nM; on Rat ΔTM FAAH it was above 1000 nM; on hABHD6, 100 to 1000 nM.
Regarding `CC1Cc2ccccc2CN1C(=O)OC(C(F)(F)F)C(F)(F)F` (stereo not drawn) [Example 13, 1,1,1,3,3,3-Hexafluoropropan-2-yl 3-methyl-3,4-dihydroisoquinoline-2(1H)-carboxylate], the IC50 at hFAAH, at hMGL, on Rat ΔTM FAAH and on hABHD6 was above 1000 nM each time.
Turning to `O=C(OC(C(F)(F)F)C(F)(F)F)N1Cc2ccc(Cl)nc2C1` [Example 14, 1,1,1,3,3,3-Hexafluoropropan-2-yl-2-chloro-5,7-dihydro-6H-pyrrolo[3,4-b]pyridine-6-carboxylate], the IC50 is above 1000 nM at hFAAH, above 1000 nM on hMGL, above 1000 nM at Rat ΔTM FAAH and 100 to 1000 nM on hABHD6.
For the molecule `CC1c2ccc(Br)cc2CN1C(=O)OC(C(F)(F)F)C(F)(F)F` (stereo not drawn) [Example 15, 1,1,1,3,3,3-Hexafluoropropan-2-yl 5-bromo-1-methylisoindoline-2-carboxylate], the IC50 on hFAAH, at hMGL, at Rat ΔTM FAAH and at hABHD6 was above 1000 nM throughout.
As to `O=C(OC(C(F)(F)F)C(F)(F)F)N1CCc2c(Br)cccc2C1` [Example 16, 1,1,1,3,3,3-Hexafluoropropan-2-yl 5-bromo-3,4-dihydroisoquinoline-2(1H)-carboxylate], the concentration for half-maximal inhibition (IC50) at hFAAH is above 1000 nM; at hMGL, above 1000 nM; on Rat ΔTM FAAH it was above 1000 nM; at hABHD6 it was 10 to 100 nM.
As for `O=C(OC(C(F)(F)F)C(F)(F)F)N1Cc2ccc(OCCN3CCCC3)cc2C1` [Example 49, 1,1,1,3,3,3-Hexafluoropropan-2-yl 5-(2-(pyrrolidin-1-yl)ethoxy)isoindoline-2-carboxylate], the IC50 on hMGL was 10 to 100 nM; on Rat ΔTM FAAH, above 1000 nM; at hABHD6, 10 to 100 nM.
Take `O=C(COc1ccc2c(c1)CN(C(=O)OC(C(F)(F)F)C(F)(F)F)C2)N1CCOCC1` [Example 50, 1,1,1,3,3,3-Hexafluoropropan-2-yl 5-(2-morpholino-2-oxoethoxy)isoindoline-2-carboxylate]: the IC50 was 10 to 100 nM on hMGL, above 1000 nM at Rat ΔTM FAAH and 10 to 100 nM at hABHD6.
With `O=C(OC(C(F)(F)F)C(F)(F)F)N1CC2(CCC(Oc3cccc(F)c3)C2)C1` (stereo not drawn) [Example 59, 1,1,1,3,3,3-Hexafluoropropan-2-yl 6-(3-fluorophenoxy)-2-azaspiro[3.4]octane-2-carboxylate], the IC50 on hMGL, at Rat ΔTM FAAH and at hABHD6 was 10 to 100 nM throughout.

Usually IC50 stands for the midpoint of a concentration-inhibition curve.

These data come from US10662159B2, “ABHD6 and dual ABHD6/MGL inhibitors and their uses” (MAKScientific, LLC, priority 2017, dated 2020).
